Source: US5274121A, “N-methyl-N-[4-(1-pyrrolidinyl)-2-butynyl]amide congeners as muscarinic agents” (priority 1992, dated 1993)
Where two headings read alike, the source gives them in different places.

What was measured:
[1] = target: T1, muscarinic receptors, NG108-15 cell membranes (m3 AChR) (Mus musculus, UniProt P32211); assay: Inhibition of [3H]-NMS binding to membranes from NG108-15 cells; conditions: for inhibition at 50 µM: read-out: binding (% inhibition of 3H-NMS binding); for inhibition at 100 µM: conc. of compounds = 100 μM
T1 construct: membranes from NG108-15 cells; endogenous in cells; host or cells: NG108-15 neuroblastoma x glioma hybrid cells (crude membrane fraction)
T1 sequence (P32211 1-479): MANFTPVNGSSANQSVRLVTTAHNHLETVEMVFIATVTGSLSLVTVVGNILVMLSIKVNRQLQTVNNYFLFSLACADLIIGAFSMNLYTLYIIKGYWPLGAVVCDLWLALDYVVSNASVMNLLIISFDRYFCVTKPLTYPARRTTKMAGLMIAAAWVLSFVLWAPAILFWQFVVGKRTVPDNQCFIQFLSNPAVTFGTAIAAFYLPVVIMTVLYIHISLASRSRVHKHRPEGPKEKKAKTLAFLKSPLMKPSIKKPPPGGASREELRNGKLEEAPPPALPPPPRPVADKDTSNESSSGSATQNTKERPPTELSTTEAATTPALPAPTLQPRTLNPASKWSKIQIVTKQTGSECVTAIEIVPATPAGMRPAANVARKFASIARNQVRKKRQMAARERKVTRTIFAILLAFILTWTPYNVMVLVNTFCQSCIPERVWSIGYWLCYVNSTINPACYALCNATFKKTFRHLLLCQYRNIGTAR
Excerpt: (§1) Compounds of the present invention were screened for their biological activity. Assay systems using SK-N-SH human neuroblastoma cells which express only m4 -AChRs coupled to PI turnover, and NG108-15 neuroblastoma x glioma cells which express only m3 AChRs coupled to adenylate cyclase inhibition were used.
(§2) Compounds of the present invention were also screened for their relative binding affinities. Assay systems which measured the inhibition of ^3 H-N-methylscopolamine (^3 H-NMS) binding to membranes from NG108-15 cells and membranes from SK-N-SH cells were used.
(§3) Inhibition of [^3 H]-NMS binding
(§4) Cells were grown to confluence, harvested, and a crude membrane fraction was obtained. […] The total volume was 1 mL. The incubation was terminated by rapid filtration over GF/B filters using a Brandel cell harvester. The filters were washed three times with ice-cold 0.9% NaCl, equilibrated in scintillation counting fluid and counted on a Beckman LS 5801 liquid scintillation counter at 47% efficiency. Non-specific binding was determined by coincubation with 1 μM atropine, and amounted to less than 15% of total counts. It was routinely subtracted from the total counts.

[2] = target: T2, muscarinic receptors, SK-N-SH cell membranes (m4 AChR) (Homo sapiens, UniProt P20309); assay: Inhibition of [3H]-NMS binding to membranes from SK-N-SH cells; conditions: for inhibition at 50 µM: read-out: binding (% inhibition of 3H-NMS binding); for inhibition at 100 µM: conc. of compounds = 100 μM
T2 construct: membranes from SK-N-SH cells; endogenous in cells; host or cells: SK-N-SH human neuroblastoma cells (crude membrane fraction)
Excerpt: as §1, §2, §3, §4

muscarinic receptors = conditions: literature; cited from earlier work
[3] = system: NG108-15 neuroblastoma x glioma cells (m3 AChR); assay: Inhibition of PGE1-stimulated cAMP levels in NG108-15 cells; type: cell-based; conditions: read-out: cAMP Inhib (relative to OXO-M)
[4] = system: SK-N-SH human neuroblastoma cells (m4 AChR); assay: Stimulation of PI turnover in SK-N-SH cells; type: cell-based; conditions: Homo sapiens, 0.5 h
Method: (§5) Compounds of the present invention were tested for their binding affinities and activation of second messengers in selective muscarinic cholinergic receptor systems. It is believed that m1 -, m4 -, and m5 AChRs couple exclusively to PI turnover, whereas m2 - and m3 -AChRs couple only to adenylate cyclase inhibition.
as §1
Stimulation of PI turnover in SK-N-SH cells
Cells were plated into 24-well plates at 100,000 cells per well. After 24 hours, they were labeled overnight with 2 μCi per well of [^3 H]-myo-inositol (American Radiolabeled Chemicals, Inc., St. Louis, Mo.; 15 Ci/mM; 2 μL of stock per mL of media). The cells were then rinsed twice with 10 mM LiCl in DMEM-Hepes and the cells were incubated in this solution for 5 min at 37° C. The indicated compound was then added at a final concentration of 100 μM and the cells were incubated for another 30 min at 37° C. The reaction was stopped by aspirating the solution and adding cold methanol to the cells. After transferring the cells to a glass tube and sonicating briefly, chloroform and water were added to make a two-phase system. The upper aqueous phase was applied to 0.6 mL anion exchange columns (AG X8, Bio-Rad) and the columns were washed and total inositol phosphates were eluted with 1M ammonium formate and 0.1M formic acid.

[5] = system: NG108-15 neuroblastoma x glioma cells (m3 AChR); assay: Inhibition of PGE1-stimulated cAMP levels in NG108-15 cells; type: cell-based; conditions: for inhibition at 100 µM: NG108-15, NG108-15 cells, read-out: cAMP Inhib; for inhibition at 100 µM / cAMP Inhib: relative to control with no compounds added, conc. of compounds = 100 μM; for cAMP Inhib: NG108-15 cells, 100 µM
Method: as §5, §1
Inhibition of PGE1 -stimulated cAMP levels in NG108-15 cells
Cells were plated in 24-well plates and were grown to 90% confluence. The growth media was then replaced with a solution of 1 mM IBMX in DMEM-Hepes (0.5 mL per well) and the cells were incubated for 10 min at 37° C. Agonists were then added at a final concentration of 100 μM, along with PGE1 (final conc, 5 μM), and the cells were incubated for a further 15 min at 37° C. The reaction Was terminated by aspirating the solution and adding 0.5 mL of 0.1N HCl. In order to extract the cAMP from the cells, they were incubated in 0.1 N HCl for 30 min at room temperature. An aliquot (35 50 μL) was removed, lyophilized, and assayed for cAMP by radioimmunoassay.

m2 AChR = conditions: cited from earlier work
m5 AChR = conditions: cited from earlier work
m4 AChR = conditions: cited from earlier work
m3 AChR = conditions: cited from earlier work
M2 AChRs = conditions: M2 AChR; cited from earlier work
M1 AChRs = conditions: M1 AChR; cited from earlier work
[6] = NG108-15 cells, conc. of compound = 50 μM
[7] = SK-N-SH cells, conc. of compound = 50 μM
[8] = 0.25 h, NG108-15 cells, data relative to OXO-M, conc. of compounds = 50 μM
[9] = SK-N-SH cells, data relative to OXO-M, conc. of compounds = 100 μM, read-out: Pi turnover (relative to OXO-M)
[10] = SK-N-SH cells, percent relative to the activity of OXO-M, conc. of compounds = 100 μM, read-out: Pi turnover

T2 sequence (P20309 whole entry): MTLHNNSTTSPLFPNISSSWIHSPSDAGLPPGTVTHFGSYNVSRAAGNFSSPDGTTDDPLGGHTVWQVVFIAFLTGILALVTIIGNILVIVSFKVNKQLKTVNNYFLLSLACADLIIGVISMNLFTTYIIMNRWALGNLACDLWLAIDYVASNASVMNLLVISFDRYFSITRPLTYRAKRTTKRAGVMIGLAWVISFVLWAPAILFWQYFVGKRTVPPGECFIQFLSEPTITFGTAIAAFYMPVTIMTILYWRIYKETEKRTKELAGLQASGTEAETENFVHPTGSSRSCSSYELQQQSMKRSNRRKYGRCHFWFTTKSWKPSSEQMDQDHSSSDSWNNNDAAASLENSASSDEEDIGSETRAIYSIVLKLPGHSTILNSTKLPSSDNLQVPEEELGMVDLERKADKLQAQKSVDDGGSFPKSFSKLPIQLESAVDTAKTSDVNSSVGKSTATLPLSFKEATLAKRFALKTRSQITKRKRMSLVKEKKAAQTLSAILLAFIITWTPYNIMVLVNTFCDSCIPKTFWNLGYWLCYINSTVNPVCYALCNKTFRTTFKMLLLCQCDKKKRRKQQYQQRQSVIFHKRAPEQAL

Row | Compound | inhibition at 50 µM [1, 6] | inhibition at 50 µM [2, 7] | Emax at 50 µM [3, 8] | further results
1 | CC(=O)N(C)C(C)C#CCN1CCCC1 (stereo not drawn) [BM 5, reference compound] | 91 ± 1% | 95 ± 1% | – | inhibition at 100 µM ([1]; NG108-15 cells): 97 ± 2%; inhibition at 100 µM ([2]; SK-N-SH cells): 99 ± 1%; muscarinic activity, in words (muscarinic receptors): potent muscarinic agent with presynaptic antagonist and postsynaptic agonist activity
2 | CN(CC#CCN1CCCC1)C(=O)CCC(=O)O [Compound 008, N-Methyl-N-[4-(1-pyrrolidinyl)-2-butynyl]-3-carboxypropanamide] | 1 ± 1% | 7 ± 2% | 10 ± 10% | –
3 | COC(=O)CCC(=O)N(C)CC#CCN1CCCC1 [Compound 009, N-Methyl-N-[4-(1-pyrrolidinyl)-2-butynyl]-3-methoxycarbonylpropanamide] | 5 ± 3% | 8 ± 1% | 10 ± 10% | –
4 | CN(CC#CCN1CCCC1)C(=O)CCC(=O)NCCN [Compound 019, N-Methyl-N-[4-(1-pyrrolidinyl)-2-butynyl]-2-[4-(2-aminoethyl)carboxamido]propanamide] | 14 ± 2% | 25 ± 5% | 10 ± 10% | –
5 | CC(=O)NCCNC(=O)CCC(=O)N(C)CC#CCN1CCCC1 [Compound 023] | 6 ± 4% | 6 ± 5% | 20 ± 10% | Emax at 100 µM [4, 9]: 6 ± 4%
6 | CN(CC#CCN1CCCC1)C(=O)c1cccc(Cl)c1 [Compound 026] | 17 ± 4% | 27 ± 10% | 30 ± 10% | Emax at 100 µM [4, 9]: 1 ± 1%
7 | CN(CC#CCN1CCCC1)C(=O)Oc1ccc(Cl)cc1 [Compound 027] | – | – | – | inhibition at 50 µM [1]: 27 ± 4%; Emax at 100 µM ([4]; SK-N-SH, read-out: Pi turnover (relative to OXO-M)): 1 ± 1%; Emax at 50 µM ([3]; NG108-15, 0.25 h): 40 ± 10%; inhibition at 50 µM [2]: 62 ± 1%
8 | COc1ccc(NC(=O)N(C)CC#CCN2CCCC2)cc1 [Compound 028] | 24 ± 6% | 61 ± 12% | 20 ± 10% | –
9 | CN(CC#CCN1CCCC1)CC1OCCO1 [Compound 029, N-(2,5-dioxolylmethyl)-N-methyl-4-(1-pyrrolidinyl)-2-butynamine] | 5 ± 5% | 19 ± 5% | 40 ± 10% | –
10 | CN(CC#CCN1CCCC1)CCC1OCCO1 [Compound 031] | 7 ± 5% | 20 ± 3% | 50 ± 10% | –
11 | CN(CC#CCN1CCCC1)C(=O)c1ccccc1 [Compound 032] | 7 ± 4% | 20 ± 5% | 50 ± 20% | Emax at 100 µM [4, 9]: 4 ± 2%
12 | C[N+](C)(C)CC#CCN1CCCC1=O [OXO-M, oxotremorine-M, reference compound] | 74 ± 3% | 49 ± 12% | 100% | inhibition at 100 µM ([1]; NG108-15 cells): 96.2 ± 2.1%; inhibition at 100 µM [5]: 64.1 ± 1.9%; cAMP Inhib [5]: 65±3%; Emax at 100 µM [4, 9]: 100%; Emax at 100 µM [4, 10]: 100%; inhibition at 100 µM ([2]; SK-N-SH cells): 52.1 ± 1.2%
13 | CC(=O)N(C)CC#CCN1CCCC1 [UH 5, reference compound] | – | – | – | agonist selectivity, in words ([5]; NG108-15 (cAMP) versus SK-N-SH (PI turnover)): acted as an agonist in both systems; inhibition at 100 µM [5]: 63.2 ± 6%; cAMP Inhib [5]: 63%; Emax at 100 µM [4, 10]: 54%; muscarinic activity, in words (muscarinic receptors): maintains agonist activity and is nearly equi-potent to oxotremorine
14 | O=C1CCCN1CC#CCN1CCCC1 [oxotremorine] | – | – | – | muscarinic activity, in words (muscarinic receptors): potent and moderately selective central muscarinic agonist
15 | CN1CCN(CC(=O)N2c3ccccc3C(=O)Nc3cccnc32)CC1 [pirenzepine] | – | – | – | affinity for pirenzepine (m2 AChR): low affinity; affinity for pirenzepine (m5 AChR): intermediate affinity; affinity for pirenzepine (m4 AChR): high affinity; affinity for pirenzepine (m3 AChR): intermediate affinity; affinity for pirenzepine (M2 AChRs): low-affinity; affinity for pirenzepine (M1 AChRs): high-affinity
